Measurements reported in patent publication US10835470B2, “Cosmetics composition containing ginsenoside as active ingredient” (AMOREPACIFIC CORPORATION, priority 2015, dated 2020).

Assays:
Pseudomonas aeruginosa = assay: Antibacterial activity, MIC by two-fold dilution; type: cell-based; settings: 32° C., 48 hours
Protocol: (§1) Antibacterial experiments were conducted to evaluate the antibacterial activity of ginsenoside Rd and Compound O. Specific experimental methods are as follows. The strains of Staphylococcus aureus, Escherichia coli and Pseudomonas aeruginosa used in the experiment were cultured in Trypticase Soy Broth, and the strains of Candida albicans, Aspergillus niger were cultured in Sabouraud Dextrose Broth medium. A diluted solution in which the culture solution is diluted 1/100 (Candida albicans strain 1/10) in each culture medium was used as a test strain solution. A spore suspension of Aspergillus niger (2×10^8 cfu/ml) was used as a test strain solution. A solution prepared by adding 0.15 ml of the test strain solution to 15 ml of each medium and thoroughly mixing the same was used as a diluted solution. 96 Deep well plate was placed by 16 μl ginsenoside Rd 10 ppm to 1 row and placed by 184 μl a diluted solution. The diluted solution was placed by 100 μl in the rest of the wells. The mixed solution of 1 row was thoroughly mixed and 100 μl was taken and placed in 2 row and thoroughly mixed. 100 μl was taken again and placed in 3 row. A two-fold dilution was carried out in this manner. Staphylococcus aureus, Escherichia coli and Pseudomonas aeruginosa were cultured in a thermostatic chamber at 32° C., and Candida albicans and Aspergillus niger were cultured in a thermostatic chamber at 25° C. After 48 hours, the growth of strains was checked by the degree of suspension and microscope, and the Minimum Inhibitory Concentration (MIC) value was determined. The ginsenoside Rd was replaced with Compound O, and the test was carried out in the same process.

Aspergillus niger = assay: Antibacterial activity, MIC by two-fold dilution; type: cell-based; settings: 25° C., 48 hours
Protocol: as §1

Candida albicans = assay: Antibacterial activity, MIC by two-fold dilution; type: cell-based; settings: 25° C., 48 hours
Protocol: as §1

Staphylococcus aureus = assay: Antibacterial activity, MIC by two-fold dilution; type: cell-based; settings: 32° C., 48 hours
Protocol: as §1

Escherichia coli = assay: Antibacterial activity, MIC by two-fold dilution; type: cell-based; settings: 32° C., 48 hours
Protocol: as §1

B16/F10 melanoma cells = assay: Inhibition of melanin production in B16/F10 melanoma cells; type: cell-based, mouse; settings: 72 hours, concentration not given
From the text: The B16/F10 melanoma used in this test example is a cell line derived from a mouse and is a cancer cell caused by malignant alteration of a cell secreting a black pigment called melanin. The extent to which and melanin production was decreased by treating the test substance during artificial cultivation of this cell was compared and evaluated. The B16/F10 melanoma used in this test example was purchased from the Korean Cell Line Bank (KCLB No: 8008) and used. Measurement of melanin biosynthesis inhibitory effect of B16/F10 melanoma was carried out as follows. B16/F10 melanoma was dispensed in a 6-well plate (5×10^5/well) and cultured in DMEM (Dulbecco's Modified Eagle's Medium) containing 10% FBS (fetal bovine serum) for about 24 hours at 37° C. in a 5% CO2 incubator (MCO-20 AIC, Sanyo). The test substance was added to a new DMEM medium not containing FBS and allowed to stand for 72 hours. […] Absorbance was measured at 405 nm using an ELISA reader (DIbiotech, Korea). […] In comparison with the melanin content in the control group, the degree of inhibition of melanin production of each test substance was measured. […] Melanin production inhibition rate was calculated according to Mathematical Equation 2 below, and the results are shown in Table 4. Melanin production inhibition rate (%)=100−[{(Absorbance of test substance)/(Absorbance of control group)}×100] […]

[1] = system: tyrosinase enzyme extracted from mushrooms; assay: Tyrosinase inhibitory effect, absorbance at 475 nm; type: biochemical; settings: mushroom tyrosinase, tyrosine substrate, 37° C., concentration of test substance not given
Protocol: The tyrosinase enzyme was extracted from mushrooms and obtained from Sigma (SIGMA). First, tyrosine as a substrate was dissolved in distilled water to prepare 0.3 mg/ml of a solution. The solution was placed by 1.0 ml in a test tube, and then 1.0 ml of potassium phosphate buffer solution (concentration 0.1 mol, PH 6.8) and 0.7 ml of distilled water were added to prepare a reaction solution.
0.2 ml of the test substance was placed in the reaction solution, and then the mixture was allowed to react in a thermostatic chamber at 37° C. for 10 minutes. At this time, as a negative control group (no addition), that obtained by adding 0.2 ml of only solvent in place of each test substance was prepared. As a positive control group, ascorbic acid was used. 2500 unit/ml of tyrosinase solution was added by 0.1 ml to the reaction solution, and the mixture was reacted again in a thermostatic chamber at 37° C. for 10 minutes. The test tube containing this reaction solution was placed in ice water and quenched to stop the reaction. Absorbance at a wavelength of 475 nm was measured with a photoelectron spectrometer. Each tyrosinase inhibitory effect was calculated by Mathematical Equation 1 below. The tests were conducted on ginsenoside Rd and compound O, respectively. Tyrosinase inhibition rate (%)=100−[{(Reaction absorbance of test substance)/(Reaction absorbance of negative control group)}×100] […]

[2] = system: keratinocytes (cell line: HaCaT); assay: Inhibition of UVB-induced reactive oxygen species (ROS) generation, DCF-DA fluorescence; type: cell-based
Protocol: 5×10^4 keratinocytes (cell line: HaCaT; obtained from: ATCC) was placed in each well of a 24-well plate and allowed to adhere for 24 hours. After 16 hours, ginsenoside Rd was treated with 1%. […] After 2 hours, the culture solution was removed, and 100 μl of phosphate buffer saline (PBS) was added to each well. The keratinocytes were irradiated with ultraviolet rays of 30 mJ/cm^2 using an ultraviolet B (UVB) lamp (Model: […], UV B 15 W, Sankyo Denki, Japan), and then PBS was taken out and 200 μl of keratinocyte culture solution was added to each well. Herein, ginsenoside Rd was again treated and the amount of reactive oxygen species increased by ultraviolet stimulation was determined for each fixed period of time. The amount of ROS was determined by referring to Tan's method for measuring the fluorescence of DCF-DA (dichlorofluorescin diacetate) oxidized by ROS (Tan et al., 1998, J. Cell Biol. Vol. 141, pp 1423-1432). The ginsenoside Rd was replaced with Compound O, and the test was carried out in the same process.

Structure (SMILES) | Minimum Inhibitory Concentration (MIC) (Pseudomonas aeruginosa) [%] | Minimum Inhibitory Concentration (MIC) (Aspergillus niger) [%] | Minimum Inhibitory Concentration (MIC) (Candida albicans) [%] | Minimum Inhibitory Concentration (MIC) (Staphylococcus aureus) [%] | Minimum Inhibitory Concentration (MIC) (Escherichia coli) [%] | Melanin production inhibition rate (%) (B16/F10 melanoma cells) | Tyrosinase inhibition rate (%) [1] [%] | Amount of ROS, ratio to vehicle control ([2]; 0 hr after irradiation of UVB 30 mJ/cm^2, test substance treated with 1%) | Amount of ROS, ratio to vehicle control ([2]; 2 hr after irradiation of UVB 30 mJ/cm^2, test substance treated with 1%) | Amount of ROS, ratio to vehicle control ([2]; 3 hr after irradiation of UVB 30 mJ/cm^2, test substance treated with 1%)
CC(C)=CCC[C@](C)(O[C@@H]1O[C@H](CO)[C@@H](O)[C@H](O)[C@H]1O)[C@H]1CC[C@]2(C)[C@@H]1[C@H](O)C[C@@H]1[C@@]3(C)CC[C@H](O[C@@H]4O[C@H](CO)[C@@H](O)[C@H](O)[C@H]4O[C@@H]4O[C@H](CO)[C@@H](O)[C@H](O)[C@H]4O)C(C)(C)[C@@H]3CC[C@]12C [Ginsenoside Rd] | 0.25 | >3 | >4 | 0.07 | 0.191 | 67 | 68 | 100 | 251 | 286
O=C1O[C@H]([C@@H](O)CO)C(O)=C1O [Ascorbic acid, reference compound] | – | – | – | – | – | – | 56 | – | – | –
O=c1cc(CO)occ1O [Kojic acid, reference compound] | – | – | – | – | – | 49 | – | – | – | –
